Series [1] relates to fully infectious HIV-1 BaL virions. As to the kind of experiment: gp120 shedding from fully infectious HIV-1 BaL. Conditions: read-out: gp120 shedding IC50 (*, fully infectious), 30 min at 37°C, western blot, ± SD. (In general: A western blot detects proteins with antibodies after separation by electrophoresis.)
Protocol: (§2) The replication competent virions were assayed for peptide triazole-induced inhibition of infection, gp120 shedding and p24 release in a BSL-2 facility. Gradient purification of the viruses and p24 release assays were performed as with pseudoviruses (described in Materials and Methods above). Cell infection by virus and its inhibition by peptide triazoles were tested using a modified version of a previously reported p24 ELISA assay [60]. The p24 release assays as well as detection of gp120 shedding were conducted as with the BaL pseudovirions (described in Materials and Methods above).
(§3) Virions were purified using 6-20% iodixanol gradient and p24 content measured using ELISA. […] HOS CD4^+ve CCR5^+ve cells seeded, at 8,000 cells per well in a 96 well plate, were incubated for 24 hours followed by addition of pre-incubated inhibitor-virus mixture. […] Further, the peptide triazole and cell-free virus were pre-incubated for 30 min at 37°C followed by spinning for 2 hours at 13,600 rpm in a table top centrifuge (Eppendorf) at 4°C. Supernatant was separated and p24 content determined using the p24 capture ELISA (explained in the main Materials and Methods section) and gp120 using western blot analysis (explained in the Supplementary Text above).
In series [2] the test system is HIV-1 BaL pseudovirus. In words: gp120 shedding from HIV-1 BaL pseudovirus (western blot).
Series [3] has as its system gp41 of HIV-1 BaL pseudovirus (4E10 epitope). As to the kind of experiment: exposure of gp41 MPER epitope, 4E10 ELISA. Conditions: fixed BaL pseudovirions, 30 min at 37°C (dose) or 1 μM (time), n = 3. Here is the method: (§1) We also measured the presence of gp41 epitopes for human mAb’s 2 F5 and 4E10 using an altered ELISA detection method to minimize virus particle disruption. […] Virus fractions were collected and fixed with equal volume of 0.1% paraformaldehyde for 30 minutes at 4°C. The treated virus fractions were spun at 16,000 X g for 2 hours at 4°C in an Eppendorf table top centrifuge. Following PBS wash, fixed virions were coated on an ELISA plate at 50 μl per well and incubated overnight at 4°C. The plate was blocked with 3% BSA, and ELISA was used to detect gp41 epitopes with human gp41 antibodies 2 F5 and 4E10 followed by addition of anti-human IgG HRP secondary antibody.
For orientation: ELISA stands for enzyme-linked immunosorbent assay.

Series [4] deals with fully infectious HIV-1 BaL virions. Conditions: upto 200 µM, n = 3.
Protocol: as §2, §3
Series [5] relates to HIV-1 BaL pseudovirus. As to the kind of experiment: p24 release from HIV-1 BaL pseudovirus (ELISA). Conditions: ELISA.
For series [6], the target named is T1, HIV-1 YU2 gp120 (Human immunodeficiency virus type 1 group M subtype B, UniProt P35961).
T1 construct: made in house; host or cells: 293F cells
In words: SPR direct binding to immobilized YU2 gp120. Conditions: immobilized YU2 gp120, PBS + 0.005% Tween 20, pH 7.2, 25°C. Here is the method: (Additional file 1: Figure S2). […] Direct binding of the peptide triazole to sensor chip immobilized HIV-1 YU2 gp120 was measured as previously described using Surface Plasmon Resonance (SPR) with a Biacore 3000 optical biosensor (GE Healthcare). […] The cell viability was measured using the tetrazolium salt premix reagent, WST-1 from Takara Bio Inc. following the manufacturer’s protocol. The formazan product was measured using the microplate reader at absorbance wavelength 460 nm (Molecular Devices).

In series [7] the test system is gp41 of HIV-1 BaL pseudovirus (2 F5 epitope). In words: exposure of gp41 MPER epitope, 2 F5 ELISA. Conditions: fixed BaL pseudovirions, 30 min at 37°C (dose) or 1 μM (time), n = 3. On the procedure:
as §1

Series [8] concerns HIV-1 BaL pseudovirus.
The subject of series [9] is gp41 of HIV-1 BaL pseudovirus (98–6 epitope). As to the kind of experiment: gp41 content of treated virions, mAb 98-6 western blot. Conditions: western blot mAb 98–6, BaL pseudovirus.
Series [10] deals with T2, sCD4 binding to plate-immobilized YU2 gp120 (Human immunodeficiency virus type 1 group M subtype B, UniProt P35961).
T2 construct: made in house; host or cells: 293F cells
As to the kind of experiment: competition ELISA, sCD4 binding to gp120. Further details: species or system HIV-1. Conditions: ± SD, n > 3.

The target in series [11] is T3, 17b binding to plate-immobilized YU2 gp120 (Human immunodeficiency virus type 1 group M subtype B, UniProt P35961).
T3 construct: made in house; host or cells: 293F cells
In words: competition ELISA, mAb 17b binding to gp120. Further details: species or system HIV-1. Conditions: m17b binding to plate-immobilized gp120, ± SD, n > 3.

For series [12], the system named is CD4^-ve CCR5^+ve cells. Conditions: cited from earlier work. On the procedure: The same incubation conditions were used as for inhibition of HIV-1 entry into HOS […] cells.
The target of series [13] is HIV-1 BaL Env gp120 on virions (HIV-1 BaL).
Series [14] deals with R5-tropic and X4-tropic HIV-1. Further details: method as in 2 sources, one per row (each row's own in cited_ref): ref 7-9, 12 = [7]; PMID 20518583; doi:10.2165/11203940-000000000-00000; Perry CM Maraviroc: a review of its use in the management of CCR5-tropic HIV-1 infection Drugs 2010 10 9 1189 1213 10.2165/11203940-000000000-00000 20518583 || [8]; PMID 23541872; doi:10.1016/j.antiviral.2013.03.017; Haqqani AA Tilton JC Entry inhibitors and their use in the treatment of HIV-1 infection Antiviral Res 2013 10 2 158 170 10.1016/j.antiviral.2013.03.017 23541872 || [9]; PMID 23290628; doi:10.1016/j.coviro.2012.12.002; Henrich TJ Kuritzkes DR HIV-1 entry inhibitors: recent development and clinical use Curr Opin Virol 2013 10 1 51 57 10.1016/j.coviro.2012.12.002 23290628 PMC4213740 || [12]; PMID 17933722; Emmelkamp JM Rockstroh JK CCR5 antagonists: comparison of efficacy, side effects, pharmacokinetics and interactions–review of the literature Eur J Med Res 2007 10 9 409 417 17933722 ||| ref 34 = [34]; PMID 23470147; doi:10.1021/bi400166b; Emileh A Tuzer F Yeh H Umashankara M Moreira DR Lalonde JM Bewley CA Abrams CF Chaiken IM A model of peptide triazole entry inhibitor binding to HIV-1 gp120 and the mechanism of bridging sheet disrupt. Conditions: cited from earlier work.

For series [15], the system named is HIV-1 BaL pseudovirus. In words: T20 effect on KR13-induced gp120 shedding, BaL. Conditions: KR13 1 μM, T20 up to 1 μM, western blot, n = 3.
Protocol: (§4) Treated virion samples were fractionated on a 6-20% iodixanol gradient (above). Gradient fractions were quantified for p24 using ELISA, and relative p24 release was quantified and plotted using the Origin Pro.8 (Origin Lab). Collected gradient fractions also were analyzed for gp120 shedding using western blot analysis, with detection using primary antibody D7324 and secondary anti-sheep HRP. The bands of the blot were analyzed using Image J software. The IC50 values were calculated using Origin Pro.8 (Origin Lab).
For series [16] the following is noted: parenteral; cited from earlier work. An excerpt: There is an urgent need for new antiretroviral agents for the prevention and treatment of HIV-1. Most of the currently approved HIV drugs target viral enzymes, in particular reverse transcriptase, protease and integrase. In contrast, the number of anti-HIV drugs targeting the entry process is more limited. The proteins involved in HIV-1 entry include gp120 and gp41 organized as a trimer on the viral envelope spike, and both CD4 and a chemokine receptor, either CCR5 or CXCR4, on the cell surface. The fusion inhibitor enfuvirtide (T20) and the CCR5 inhibitor maraviroc are t ...

Series [17] deals with HIV-1 BaL pseudovirus. Conditions: KR13 1 μM, T20 dilutions from 1 μM, 30 min at 37°C, p24 ELISA, ± SD, n = 3.
Protocol: as §4

Where “and” joins values, the source holds several entries; their conditions need not be identical. Equal entries are not always repeated. Entries after “also recorded” stand apart in the source; their conditions may differ. Where two headings read alike, the source gives them in different places. Starred links: 1 amine or outer side, 2 acyl side, 3 side chain; linkers in the order of their positions; H or OH if unused. Non-standard residues stand in square brackets, D forms with d. Residues, ends and D or L forms follow the SMILES beside them. X1 = O=C([C@@H]1C[C@H](n2cc([C]34[CH]5[CH]6[CH]7[CH]3[Fe]6754389%10[CH]4[CH]3[CH]8[CH]9[CH]4%10)nn2)CN1[*:1])[*:2]; βAla = NCCC(=O)O

Take `CC[C@H](C)[C@H](NC(=O)[C@@H](N)CCCNC(=N)N)C(=O)N[C@@H](CC(N)=O)C(=O)N[C@@H](CC(N)=O)C(=O)N[C@H](C(=O)N1C[C@@H](n2cc([C]34[CH]5[CH]6[CH]7[CH]3[Fe]6754389%10[CH]4[CH]3[CH]8[CH]9[CH]4%10)nn2)C[C@H]1C(=O)N[C@@H](Cc1c[nH]c2ccccc12)C(=O)N[C@@H](CO)C(=O)N[C@@H](CCC(=O)O)C(=O)N[C@@H](C)C(=O)N[C@@H](CCSC)C(=O)N[C@@H](CCSC)C(N)=O)[C@@H](C)CC` (stereo partly shown) [HNG156]: in series [1], the IC50 stood at 1800 nM. Besides, in [2], the “gp120 shedding, in words” value was “caused gp120 shedding; also recorded: induced only gp120 shedding”. The “reactivity to 4E10” value in series [3] is on record as “MPER epitopes were poorly exposed”. In addition, in [4], the “p24 release, fully infectious, in words” value is reported as “No p24 release was observed”. Further, the “p24 release, in words” value in [5] is “neither of these peptides caused p24 release”. Also, the “SPR direct binding to gp120, in words” value in [6] is recorded as “bound to gp120”. Also, the “reactivity to 2 F5” value in [7] is “MPER epitopes were poorly exposed”. Also, in series [8] (KR13 1 μM or HNG156 100 μM, 1 min to 24 hours, 37°C), the “kinetics of infectivity inhibition versus gp120 shedding” value is “infectivity inhibition and gp120 shedding had similar kinetics”. Moreover, in series [9], the “gp41 retention / 98–6 detection” value is “gp41 remained associated with virions”.

Turning to `CC[C@H](C)[C@H](NC(=O)[C@@H](N)CCCNC(=N)N)C(=O)N[C@@H](CC(N)=O)C(=O)N[C@@H](CC(N)=O)C(=O)N[C@H](C(=O)N1C[C@@H](n2cc([C]34[CH]5[CH]6[CH]7[CH]3[Fe]6754389%10[CH]4[CH]3[CH]8[CH]9[CH]4%10)nn2)C[C@H]1C(=O)N[C@@H](Cc1c[nH]c2ccccc12)C(=O)N[C@@H](CO)C(=O)N[C@@H](CCC(=O)O)C(=O)N[C@@H](C)C(=O)N[C@@H](CCSC)C(=O)N[C@@H](CCSC)C(=O)NCCC(=O)N[C@@H](CCC(N)=O)C(=O)NCCC(=O)N[C@@H](CSCNC(C)=O)C(N)=O)[C@@H](C)CC` (stereo partly shown) [KR13b], the “gp120 shedding, in words” value in series [2] is “caused gp120 shedding; also recorded: induced only gp120 shedding”. In addition, the “p24 release, in words” value in [5] was “neither of these peptides caused p24 release”. In addition, the “SPR direct binding to gp120, in words” value in series [6] is “bound to gp120”.

Take `CC[C@H](C)[C@H](NC(=O)[C@H](CC(N)=O)NC(=O)[C@H](CC(N)=O)NC(=O)[C@@H](NC(=O)[C@@H](N)CCCNC(=N)N)[C@@H](C)CC)C(=O)N[C@@H](Cc1c[nH]c2ccccc12)C(=O)N1C[C@@H](n2cc([C]34[CH]5[CH]6[CH]7[CH]3[Fe]6754389%10[CH]4[CH]3[CH]8[CH]9[CH]4%10)nn2)C[C@H]1C(=O)N[C@@H](CO)C(=O)N[C@@H](CCC(=O)O)C(=O)N[C@@H](C)C(=O)N[C@@H](CCSC)C(=O)N[C@@H](CCSC)C(=O)NCCC(=O)N[C@@H](CCC(N)=O)C(=O)NCCC(=O)N[C@@H](CS)C(N)=O` (stereo partly shown) [KR13s] (H-RINNIW[X1]SEAMM[βAla]Q[βAla]C-NH2; N-terminus assumed): in series [2], the “gp120 shedding, in words” value is reported as “not the KR13s control, caused gp120 shedding”. Besides, the “IC50, sCD4 competition” value in series [10] is “undetected”. In addition, the “SPR direct binding to gp120, in words” value in [6] was “low and inconsistent dose dependent signals”. The “inhibition of infection, in words” value in series [8] (single round infection assay) was “inactive”. In addition, the “IC50, 17b competition” value in series [11] is given as “undetected”.

With `CC1(C)CC(NC(=O)C(=O)Nc2ccc(Cl)cc2)CC(C)(C)N1` [NBD-556], the “activation of infection, CD4^-ve CCR5^+ve cells (NBD-556)” value in [12] is recorded as “can activate infection in CD4^-ve CCR5^+ve cells”.

“KR13b (KR13 with the thiol blocked with an acetamidomethyl (ACM) group) (peptide)”: in series [13], the gp120 shedding from HIV-1 BaL pseudovirus (western blot), IC50 is 120 nM and the inhibition of cell infection (viral inactivation), HIV-1 BaL pseudovirus, EC50 is 52 nM.

Maraviroc [reference compound]: in series [14], the antiviral tropism entry is given as “blocks R5-tropic but not X4-tropic HIV-1”.

Consider enfuvirtide, for which the “effect of T20 on KR13-induced gp120 shedding” value in [15] was “did not affect gp120 shedding caused by KR13; also recorded: No significant effect on the gp120 release”. In addition, the “adverse reactions at sites of injection” value in series [16] is “adverse reactions at sites of injection are common”. For the same molecule, the concentration for half-maximal inhibition (IC50) in series [8] (read-out: IC50, infection inhibition, BaL (Figure S9), Figure S9, ± SD, n = 3) was 34.5 ± 1.2 nM; in series [17], 15 nM and 15.9 nM.

The term IC50 denotes the point on the concentration scale where inhibition reaches its midpoint.

Values taken from publication PMC3878761, “Interactions of peptide triazole thiols with Env gp120 induce irreversible breakdown and inactivation of HIV-1 virions” (Retrovirology, 2013).
